From patent US10376520B2, “Methods for the treatment of cardiovascular disorders” (Galapagos NV, priority 2015, dated 2019)

Tested on: RA patients
Test: Total cholesterol determination, Study 1 (RA patients with inadequate response to methotrexate, add-on to MTX)
Format: in vivo, human
Protocol: Double-blind, placebo-controlled add on study in subjects with moderately to severely active RA who have an inadequate response to methotrexate (MTX) (oral or parenteral).
595 subjects randomized to one of 6 dose regimens of Compound 1 (dosed as a [Compound 1:HCl:3H2O]) (3 dose levels administered either once or twice daily) or placebo on top of each subject's stable dose of MTX.
Compound 1 (dosed as a [Compound 1:HCl:3H2O]) is dosed for twelve weeks once daily (q.d.) (50 mg, 100 mg or 200 mg) or twice daily (b.i.d.) (25 mg, 50 mg or 100 mg); or placebo.
At Week 12, the subjects on placebo who have not achieved 20% improvement in swollen joint count (SJC66) and tender joint count (TJC68) are re-randomized automatically to receive Compound 1 (dosed as a [Compound 1:HCl:3H2O]) either at 100 mg q.d. or 50 mg b.i.d. doses in a blinded fashion; subjects on 50 mg q.d. who have not achieved 20% improvement in SJC66 and TJC68 will be assigned to 100 mg q.d. and subjects on 25 mg b.i.d. that have not achieved a 20% improvement in SJC66 and TJC68 will be assigned to 50 mg b.i.d. Subjects who switch treatment at week 12 are handled as if they discontinued at week 12 for the purpose of statistical analysis, whereas subjects in the other groups will maintain their randomized treatment until Week 24.
This method is based on the determination of Δ^4 cholestenone after enzymatic cleavage of the cholesterol ester by cholesterol esterase, conversion of cholesterol by cholesterol oxidase, and subsequent measurement by the Trinder reaction of the hydrogen peroxide formed (Allain et al., 1974).
Cholesterol esters are cleaved by the action of cholesterol esterase to yield free cholesterol and fatty acids. Cholesterol oxidase then catalyzes the oxidation of cholesterol to cholest-4-en-3-one and hydrogen peroxide. In the presence of peroxidase, the hydrogen peroxide formed effects the oxidative coupling of phenol and 4-aminophenazone to form a red quinone-imine dye. The color intensity of the dye formed is directly proportional to the cholesterol concentration. It is determined by measuring the increase in absorbance.
Human serum and plasma samples cholesterol determination was done on a Roche/Hitachi Cobas c 701/702 system which automatically calculate the analyte concentration of each sample.

O=C(Nc1nc2cccc(-c3ccc(CN4CCS(=O)(=O)CC4)cc3)n2n1)C1CC1 [Compound 1, cyclopropanecarboxylic acid {5-[4-(1,1-dioxo-thiomorpholin-4-ylmethyl)-phenyl]-[1,2,4]triazolo[1,5-a]pyridin-2yl}-amide]
[total cholesterol] Mean percentage CFB - 24 weeks results (continued 25 mg b.i.d (N = 69), week 12): 6.38%
[total cholesterol] Mean percentage CFB - 24 weeks results (continued 25 mg b.i.d (N = 69), week 16): 5.51%
[total cholesterol] Mean percentage CFB - 24 weeks results (continued 25 mg b.i.d (N = 69), week 20): 6.95%
[total cholesterol] Mean percentage CFB - 24 weeks results (continued 25 mg b.i.d (N = 69), week 24): 6.53%
[total cholesterol] Mean percentage CFB - 24 weeks results (continued 50 mg b.i.d. (N = 85), week 1): 3.39%
[total cholesterol] Mean percentage CFB - 24 weeks results (continued 50 mg b.i.d. (N = 85), week 2): 3.87%
[total cholesterol] Mean percentage CFB - 24 weeks results (continued 50 mg b.i.d. (N = 85), week 4): 7.04%
[total cholesterol] Mean percentage CFB - 24 weeks results (continued 50 mg b.i.d. (N = 85), week 8): 5.63%
[total cholesterol] Mean percentage CFB - 24 weeks results (continued 50 mg b.i.d. (N = 85), week 12): 5.67%
[total cholesterol] Mean percentage CFB - 24 weeks results (continued 50 mg b.i.d. (N = 85), week 16): 6.23%
[total cholesterol] Mean percentage CFB - 24 weeks results (continued 50 mg b.i.d. (N = 85), week 20): 7.91%
[total cholesterol] Mean percentage CFB - 24 weeks results (continued 50 mg b.i.d. (N = 85), week 24): 7.97%
[total cholesterol] Mean percentage CFB - 24 weeks results (continued 50 mg q.d. (N = 63), week 1): 0.77%
[total cholesterol] Mean percentage CFB - 24 weeks results (continued 50 mg q.d. (N = 63), week 2): −0.22%
[total cholesterol] Mean percentage CFB - 24 weeks results (continued 50 mg q.d. (N = 63), week 4): 1.08%
[total cholesterol] Mean percentage CFB - 24 weeks results (continued 50 mg q.d. (N = 63), week 8): 3.49%
[total cholesterol] Mean percentage CFB - 24 weeks results (continued 50 mg q.d. (N = 63), week 12): 5.58%
[total cholesterol] Mean percentage CFB - 24 weeks results (continued 50 mg q.d. (N = 63), week 16): 5.15%
[total cholesterol] Mean percentage CFB - 24 weeks results (continued 50 mg q.d. (N = 63), week 20): 4.68%
[total cholesterol] Mean percentage CFB - 24 weeks results (continued 50 mg q.d. (N = 63), week 24): 6.75%
[total cholesterol] Mean percentage CFB - 24 weeks results (continued 100 mg b.i.d. (N = 84), week 1): 6.85%
[total cholesterol] Mean percentage CFB - 24 weeks results (continued 100 mg b.i.d. (N = 84), week 2): 8.38%
[total cholesterol] Mean percentage CFB - 24 weeks results (continued 100 mg b.i.d. (N = 84), week 4): 9.86%
[total cholesterol] Mean percentage CFB - 24 weeks results (continued 100 mg b.i.d. (N = 84), week 8): 14.79%
[total cholesterol] Mean percentage CFB - 24 weeks results (continued 100 mg b.i.d. (N = 84), week 12): 14.98%
[total cholesterol] Mean percentage CFB - 24 weeks results (continued 100 mg b.i.d. (N = 84), week 16): 12.82%
[total cholesterol] Mean percentage CFB - 24 weeks results (continued 100 mg b.i.d. (N = 84), week 20): 12.71%
[total cholesterol] Mean percentage CFB - 24 weeks results (continued 100 mg b.i.d. (N = 84), week 24): 15.39%
[total cholesterol] Mean percentage CFB - 24 weeks results (continued 100 mg q.d. (N = 85), week 1): 3.65%
[total cholesterol] Mean percentage CFB - 24 weeks results (continued 100 mg q.d. (N = 85), week 2): 2.32%
[total cholesterol] Mean percentage CFB - 24 weeks results (continued 100 mg q.d. (N = 85), week 4): 4.86%
[total cholesterol] Mean percentage CFB - 24 weeks results (continued 100 mg q.d. (N = 85), week 8): 3.79%
[total cholesterol] Mean percentage CFB - 24 weeks results (continued 100 mg q.d. (N = 85), week 12): 5.39%
[total cholesterol] Mean percentage CFB - 24 weeks results (continued 100 mg q.d. (N = 85), week 16): 1.87%
[total cholesterol] Mean percentage CFB - 24 weeks results (continued 100 mg q.d. (N = 85), week 20): 3.28%
[total cholesterol] Mean percentage CFB - 24 weeks results (continued 100 mg q.d. (N = 85), week 24): 5.05%
[total cholesterol] Mean percentage CFB - 24 weeks results (continued 200 mg q.d. (N = 86), week 1): 5.53%
[total cholesterol] Mean percentage CFB - 24 weeks results (continued 200 mg q.d. (N = 86), week 2): 9.86%
[total cholesterol] Mean percentage CFB - 24 weeks results (continued 200 mg q.d. (N = 86), week 4): 8.99%
[total cholesterol] Mean percentage CFB - 24 weeks results (continued 200 mg q.d. (N = 86), week 8): 6.72%
[total cholesterol] Mean percentage CFB - 24 weeks results (continued 200 mg q.d. (N = 86), week 12): 10.16%
[total cholesterol] Mean percentage CFB - 24 weeks results (continued 200 mg q.d. (N = 86), week 16): 9.19%
[total cholesterol] Mean percentage CFB - 24 weeks results (continued 200 mg q.d. (N = 86), week 20): 8.00%
[total cholesterol] Mean percentage CFB - 24 weeks results (continued 200 mg q.d. (N = 86), week 24): 9.94%
[total cholesterol] Mean percentage CFB - 24 weeks results (from 25 mg b.i.d. to 50 mg b.i.d at 12 weeks (N = 17), week 1): 0.55%
[total cholesterol] Mean percentage CFB - 24 weeks results (from 25 mg b.i.d. to 50 mg b.i.d at 12 weeks (N = 17), week 2): 2.37%
[total cholesterol] Mean percentage CFB - 24 weeks results (from 25 mg b.i.d. to 50 mg b.i.d at 12 weeks (N = 17), week 4): −2.60%
[total cholesterol] Mean percentage CFB - 24 weeks results (from 25 mg b.i.d. to 50 mg b.i.d at 12 weeks (N = 17), week 8): −2.81%
[total cholesterol] Mean percentage CFB - 24 weeks results (from 25 mg b.i.d. to 50 mg b.i.d at 12 weeks (N = 17), week 12): 0.30%
[total cholesterol] Mean percentage CFB - 24 weeks results (from 25 mg b.i.d. to 50 mg b.i.d at 12 weeks (N = 17), week 16): 4.23%
[total cholesterol] Mean percentage CFB - 24 weeks results (from 25 mg b.i.d. to 50 mg b.i.d at 12 weeks (N = 17), week 24): 2.66%
[total cholesterol] Mean percentage CFB - 24 weeks results (from 50 mg q.d. to 100 mg q.d. at 12 weeks (N = 19), week 1): 1.24%
[total cholesterol] Mean percentage CFB - 24 weeks results (from 50 mg q.d. to 100 mg q.d. at 12 weeks (N = 19), week 2): 4.36%
[total cholesterol] Mean percentage CFB - 24 weeks results (from 50 mg q.d. to 100 mg q.d. at 12 weeks (N = 19), week 4): 1.67%
[total cholesterol] Mean percentage CFB - 24 weeks results (from 50 mg q.d. to 100 mg q.d. at 12 weeks (N = 19), week 8): 2.29%
[total cholesterol] Mean percentage CFB - 24 weeks results (from 50 mg q.d. to 100 mg q.d. at 12 weeks (N = 19), week 12): 2.39%
[total cholesterol] Mean percentage CFB - 24 weeks results (from 50 mg q.d. to 100 mg q.d. at 12 weeks (N = 19), week 16): 7.55%
[total cholesterol] Mean percentage CFB - 24 weeks results (from 50 mg q.d. to 100 mg q.d. at 12 weeks (N = 19), week 20): 6.69%
[total cholesterol] Mean percentage CFB - 24 weeks results (from 50 mg q.d. to 100 mg q.d. at 12 weeks (N = 19), week 24): 5.15%
[total cholesterol] Mean percentage CFB - 24 weeks results (placebo switched to 50 mg b.i.d at week 12 (N = 15), week 16): 3.97%
[total cholesterol] Mean percentage CFB - 24 weeks results (placebo switched to 50 mg b.i.d at week 12 (N = 15), week 20): 5.80%
[total cholesterol] Mean percentage CFB - 24 weeks results (placebo switched to 50 mg b.i.d at week 12 (N = 15), week 24): 3.22%
